# Key:
# Type in all cases: in vivo, C57BL/6J male mice
# [1] = Experimental Example 1: high fat diet-induced obese mice fed a 20% protein energy diet supplemented with lysine hydrochloride for 8 weeks
# Excerpt: A high fat diet (dietary energy composition ratio was protein:fat:carbohydrate=17:46:37) was provided for 16 weeks to 30 5-week-old C57BL/6J male mice. At the 16th week, the 30 mice were divided into 3 groups, each consisting of 10 individuals (n=10), and from then, the following diets were provided for 8 weeks to the 3 groups, respectively, (1) 20% protein energy diet (LF; protein:fat:carbohydrate=2:7:1), (2) 20% protein energy diet supplemented with 1% lysine hydrochloride (LF1K; containing 1% lysine hydrochloride (0.8% lysine base)), and (3) 20% protein energy diet supplemented with 3% lysine hydrochloride (LF3K; containing 3% lysine hydrochloride (2.4% lysine base)). Herein, the term “lysine base” refers to free-form lysine. Further, as a nonobese group, a group (LL) was prepared consisting of 10 mice of the same species that were fed with 20% protein energy diet (protein:fat:carbohydrate=2:7:1) from the start of the experiment until the end, i.e., for 24 weeks.
# The food intakes were measured and the energy intakes were determined from the energy per g of each test diet. After 8 weeks of the experimental period, the body weight and the total fat weight (sum of epididymal fat, perirenal fat, mesenteric fat, and subcutaneous fat in the periphery of the femoral region) were measured. Statistical analysis was performed using Dunnett's test employing the LF group as the control.
# [2] = Experimental Example 2: mice fed 10/20/40/60% protein energy diets with or without 3% lysine hydrochloride for 4 weeks; details: after 4 weeks, vs respective diet without lysine supplementation
# Excerpt: The following feeding stuffs were respectively provided for 4 weeks to 8 groups of 9-week-old C57BL/6J male mice, consisting of 10 individuals per group (n=10): (1) 10% protein energy diet (LP; dietary energy composition ratio was protein:fat:carbohydrate=1:1:8), (2) 10% protein energy diet supplemented with lysine hydrochloride (LPK), (3) 20% protein energy diet (LF; protein:fat:carbohydrate=2:1:7), (4) 20% protein energy diet supplemented with lysine hydrochloride (LFK), (5) 40% protein energy diet (MP; protein:fat:carbohydrate =4:1:5), (6) 40% protein energy diet supplemented with lysine hydrochloride (MPK), (7) 60% protein energy diet (HP; protein:fat:carbohydrate=6:1:3), and (8) 60% protein energy diet supplemented with lysine hydrochloride (HPK). The diets, when supplemented with lysine hydrochloride, were added with 3% lysine hydrochloride.
# After 4 weeks the experimental period, the body weight, the total fat weight(sum of epididymal fat, perirenal fat, mesenteric fat, and subcutaneous fat in the periphery of the femoral region), and the kidney weight were measured. Statistical analysis was performed using Dunnett's test, employing the respective groups fed with the diets without lysine supplementation as the controls.
# [3] = Experimental Example 3: mice fed high fat feed supplemented with lysine hydrochloride, triglyceride concentration in blood plasma
# Excerpt: The following diets were respectively provided for 8 weeks to 4 groups of 9-week-old C57BL/6J male mice, consisting of 10 individuals per group (n=10): (1) 20% protein energy diet (LF; dietary energy composition ratio was protein:fat:carbohydrate=2:7:1), (2) high fat feed (HF; protein:fat:carbohydrate=17:46:37), (3) high fat food supplemented with 1% lysine hydrochloride (HF1K; containing 1% lysine hydrochloride (0.8% lysine base)), and (4) high fat feed supplemented with 3% lysine hydrochloride (HF3K; containing 3% lysine hydrochloride (2.4% lysine base)).
# After 8 weeks of the experimental period, the triglyceride concentration in the blood plasma was measured. Statistical analysis was performed using Dunnett's test employing the HF group as the control.
# [4] = after 8 weeks, 1% or 3% lysine hydrochloride in 20% protein energy diet, vs LF group, Dunnett's test p<0.05, dose-dependent
# [5] = mice, feeding stuff having 20% protein energy, lysine component(s) 0.8 to 3.0 wt % on the dry matter basis
smiles,measurement,setting,value
"Cl.NCCCC[C@H](N)C(=O)O [lysine hydrochloride, L-Lysine hydrochloride]",body weight upon the autopsy,[1]; [4],significant decrease
same,"total fat weight (sum of epididymal, perirenal, mesenteric and femoral subcutaneous fat)",[1]; [4],significant decrease
same,increase in body fat,[1]; [5],suppressed
same,increase in body weight,[1]; [5],suppressed
same,total fat weight,[2],decrease
same,body weight,[2]; Dunnett's test p<0.05,decrease
same,increase in the triglyceride concentration in the blood plasma due to intake of the high fat diet,"[3]; after 8 weeks, 1% or 3% lysine hydrochloride in high fat feed, vs HF group, Dunnett's test p<0.05",significantly inhibited
same,improvement effect for hyperlipidemia,"[3]; mice, lysine component(s) 0.8 to 3.0 wt % on the dry matter basis",improvement effect for hyperlipidemia was exhibited

# Reference: US8394401B2, “Antiobesity or antihyperlipidemic food, feeding stuff or supplement containing lysine” (Ajinomoto Co., Inc., priority 2004, dated 2013)
